# According to ChEMBL document CHEMBL4257485, “The critical role of novel benzophenone analogs on tumor growth inhibition targeting angiogenesis and apoptosis” (Medchemcomm, 2018):
# Activity calls are given as the source filed them. The rule behind the calls is not given here.
# What was measured:
# A549 [1] = test: Cytotoxicity against human A549 cells after 48 hrs by trypan blue exclusion assay; format: functional, cell-based; conditions: A549, 48 h
# NIH3T3 [2] = test: Cytotoxicity against mouse NIH/3T3 cells after 48 hrs by trypan blue exclusion assay; format: cell-based; conditions: NIH3T3, 48 h
# A549 [3] = test: Cytotoxicity against human A549 cells after 48 hrs by MTT assay; format: functional, cell-based; conditions: A549, 48 h
# HeLa [4] = test: Cytotoxicity against human HeLa cells after 48 hrs by LDH release assay; format: functional, cell-based
# NIH3T3 [5] = test: Cytotoxicity against mouse NIH/3T3 cells after 48 hrs by LDH release assay; format: cell-based; conditions: NIH3T3, 48 h
# MCF7 [6] = test: Cytotoxicity against human MCF7 cells after 48 hrs by trypan blue exclusion assay; format: functional, cell-based; conditions: MCF7, 48 h
# A549 [7] = test: Cytotoxicity against human A549 cells after 48 hrs by LDH release assay; format: functional, cell-based; conditions: A549, 48 h
# HeLa [8] = test: Cytotoxicity against human HeLa cells after 48 hrs by trypan blue exclusion assay; format: functional, cell-based
# MCF7 [9] = test: Cytotoxicity against human MCF7 cells after 48 hrs by LDH release assay; format: functional, cell-based; conditions: MCF7, 48 h
# MCF7 [10] = test: Cytotoxicity against human MCF7 cells after 48 hrs by MTT assay; format: functional, cell-based; conditions: MCF7, 48 h
# NIH3T3 [11] = test: Cytotoxicity against mouse NIH/3T3 cells after 48 hrs by MTT assay; format: cell-based; conditions: NIH3T3, 48 h
# HeLa [12] = test: Cytotoxicity against human HeLa cells after 48 hrs by MTT assay; format: functional, cell-based
# Chorioallantoic membrane [13] = test: Ex vivo angioprotective activity in chicken CAM assessed as decrease in recombinant VEGF165-induced total vessel length at 1 mg/ml after 72 hrs; format: functional, tissue-based; set-up: scale not given: the % may be the effect or the level left; conditions: Gallus gallus
# A549 [14] = test: Antitumor activity against human A549 cells xenografted in chicken CAM assessed as reduction in tumor progression at 1 mg/ml measured on day 12 post fertilization by hematoxylin and eosin staining-based assay relative to control; format: functional
# A549 [15] = test: Cell cycle arrest in human A549 cells assessed as decrease in cell levels at G2/M phase at IC50 after 24 to 48 hrs by propidium iodide staining-based flow cytometric method; format: functional
# A549 [16] = test: Inhibition of colony formation of human A549 cells at 25 to 50 uM pretreated for 6 hrs followed by subsequent incubation for 12 days by crystal violet staining-based assay; format: functional, cell-based
# A549 [17] = test: Cell cycle arrest in human A549 cells assessed as accumulation at sub-G1 phase at IC50 after 16 hrs by propidium iodide staining-based flow cytometric method (reference value: 0.69%); format: functional
# A549 [18] = test: Cell cycle arrest in human A549 cells assessed as accumulation at G2/M phase at IC50 after 16 hrs by propidium iodide staining-based flow cytometric method (reference value: 3.44%); format: functional
# A549 [19] = test: Induction of apoptosis in human A549 cells assessed as early apoptotic cells at IC50 after 12 to 15 hrs by annexin-V-FITC/propidium iodide staining-based flow cytometric method (reference value: 1.65%); format: functional
# A549 [20] = test: Cell cycle arrest in human A549 cells assessed as accumulation at G0/G1 phase at IC50 after 16 hrs by propidium iodide staining-based flow cytometric method (reference value: 70.8%); format: functional
# A549 [21] = test: Cell cycle arrest in human A549 cells assessed as accumulation at S phase at IC50 after 16 hrs by propidium iodide staining-based flow cytometric method (reference value: 24.8%); format: functional
# A549 [22] = test: Induction of apoptosis in human A549 cells assessed as necrotic cells at IC50 after 12 to 15 hrs by annexin-V-FITC/propidium iodide staining-based flow cytometric method (reference value: 10.2%); format: functional
# A549 [23] = test: Induction of apoptosis in human A549 cells assessed as late apoptotic cells at IC50 after 12 to 15 hrs by annexin-V-FITC/propidium iodide staining-based flow cytometric method (reference value: 14.3%); format: functional
# Chorioallantoic membrane [24] = test: Ex vivo angioprotective activity in chicken CAM assessed as inhibition of recombinant VEGF165-induced neovuscularization at 1 mg/ml after 72 hrs; format: functional, tissue-based; conditions: Gallus gallus
# A549 [25] = test: Induction of morphological changes in human A549 cells assessed as membrane blebbing by Giemsa staining-based microscopic method; format: functional, cell-based
# A549 [26] = test: Induction of apoptosis in human A549 cells assessed as live cells at IC50 after 12 to 15 hrs by annexin-V-FITC/propidium iodide staining-based flow cytometric method (reference value: 73.8%); format: functional
# A549 [27] = test: Induction of morphological changes in human A549 cells assessed as irregular shape by Giemsa staining-based microscopic method; format: functional, cell-based
# A549 [28] = test: Cell cycle arrest in human A549 cells assessed as increase in accumulation at sub-G0 phase at IC50 after 48 hrs by propidium iodide staining-based flow cytometric method; format: functional
# A549 [29] = test: Inhibition of migration of human A549 cells at 25 uM after 48 hrs by scratch wound assay relative to control; format: functional; conditions: A549, 48 h
# Chorioallantoic membrane [30] = test: In vivo angioprotective activity in chicken CAM assessed as decrease in recombinant VEGF165-induced total vessel length at 1 mg/ml after 72 hrs; format: functional, Gallus gallus; set-up: scale not given: the % may be the effect or the level left
# A549 [31] = test: Antiangiogenic activity in human A549 cells xenografted in chicken CAM assessed as reduction in recombinant VEGF165-induced MVD/HPF measured on day 12 post fertilization by hematoxylin and eosin staining-based assay; format: functional, cell-based
# A549 [32] = test: Induction of apoptosis in human A549 cells assessed as caspase-3 activation by immunoblot method; format: functional, cell-based
# A549 [33] = test: Inhibition of migration of human A549 cells at 50 uM after 48 hrs by scratch wound assay relative to control; format: functional; conditions: A549, 48 h
# [34] = system: Enterobacteria phage lambda; test: Induction of lambda phage DNA fragmentation by agarose gel electrophoresis
# Chorioallantoic membrane [35] = test: In vivo angioprotective activity in chicken CAM assessed as inhibition of recombinant VEGF165-induced neovuscularization at 1 mg/ml after 72 hrs; format: functional, Gallus gallus
# A549 [36] = test: Downregulation of VEGF expression in human A549 cells by immunoblot method; format: functional, cell-based
# A549 [37] = test: Antiangiogenic activity in human A549 cells xenografted in chicken CAM assessed as reduction in recombinant VEGF165-induced MVD/HPF at 1 mg/ml measured on day 12 post fertilization by hematoxylin and eosin staining-based assay relative to control; format: functional; set-up: scale not given: the % may be the effect or the level left
# Homo sapiens = species on record: Homo sapiens; test: Induction of endonuclease activity in cytosolic fraction of human A549 cells assessed as increase in DNA lysis zone at 85 uM by SYBR green dye-based agarose gel electrophoresis
# A549 [38] = test: Induction of morphological changes in human A549 cells assessed as formation of apoptotic bodies by Giemsa staining-based microscopic method; format: functional, cell-based
smiles,measurement,setting,value
Cn1cnc(C(=O)NNC(=O)COc2c(F)cc(C(=O)c3ccc(Cl)cc3)cc2Cl)c1,IC50,A549 [1],47.3 µM
same,IC50,NIH3T3 [2],90.9 µM
same,IC50,A549 [3],49.1 µM
same,IC50,HeLa [4],54.5 µM
same,IC50,NIH3T3 [5],89.3 µM
same,IC50,MCF7 [6],47.3 µM
same,IC50,A549 [7],45.8 µM
same,IC50,HeLa [8],51.6 µM
same,IC50,MCF7 [9],44.4 µM
same,IC50,MCF7 [10],43.1 µM
same,IC50,NIH3T3 [11],87.8 µM
Cn1cnc(C(=O)NNC(=O)COc2ccc(C(=O)c3ccccc3)cc2)c1,IC50,A549 [1],29.6 µM
same,IC50,HeLa [12],32.9 µM
same,IC50,NIH3T3 [2],98.8 µM
same,IC50,A549 [3],30.6 µM
same,IC50,HeLa [4],31.9 µM
same,IC50,NIH3T3 [5],97.4 µM
same,IC50,MCF7 [6],29.6 µM
same,IC50,A549 [7],31.6 µM
same,IC50,HeLa [8],33.2 µM
same,IC50,MCF7 [9],31.6 µM
same,IC50,MCF7 [10],30.6 µM
same,IC50,NIH3T3 [11],96.9 µM
Cc1ccc(C(=O)c2cc(F)c(OCC(=O)NNC(=O)c3ccc(=O)oc3)c(Cl)c2)cc1,IC50,A549 [1],19.6 µM
same,IC50,HeLa [12],20.9 µM
same,IC50,NIH3T3 [2],30.8 µM
same,IC50,A549 [3],22.6 µM
same,IC50,HeLa [4],26.9 µM
same,IC50,NIH3T3 [5],32.1 µM
same,IC50,MCF7 [6],29.1 µM
same,IC50,A549 [7],21.4 µM
same,IC50,HeLa [8],26.2 µM
same,IC50,MCF7 [9],24.2 µM
same,IC50,MCF7 [10],23.6 µM
same,IC50,NIH3T3 [11],28.9 µM
Cc1ccc(C(=O)c2cc(F)c(OCC(=O)NNC(=O)c3cn(C)cn3)c(Cl)c2)cc1,Activity,Chorioallantoic membrane [13],85%
same,IC50,A549 [1],9.6 µM
same,fold change (FC),A549 [14],1.7
same,Activity,A549 [15],Active
same,inhibition,A549 [16],Active
same,IC50,HeLa [12],9.9 µM
same,Activity,A549 [17],5.83%
same,IC50,NIH3T3 [2],93.8 µM
same,Activity,A549 [18],1.62%
same,IC50,A549 [3],8.8 µM
same,Activity,A549 [19],0.6%
same,Activity,A549 [20],75.9%
same,IC50,HeLa [4],10.4 µM
same,Activity,A549 [21],16.7%
same,Activity,A549 [22],17.4%
same,Activity,A549 [23],48.4%
same,inhibition,Chorioallantoic membrane [24],26%
same,IC50,NIH3T3 [5],94.9 µM
same,Activity,A549 [25],Active
same,Activity,A549 [26],33.5%
same,Activity,A549 [27],Active
same,Activity,A549 [28],Active
same,inhibition at 25 µM,A549 [29],15.6%
same,Activity,Chorioallantoic membrane [30],85%
same,IC50,MCF7 [6],9.5 µM
same,IC50,A549 [7],9.1 µM
same,Activity,A549 [31],Dose-dependent effect
same,Activity,A549 [32],Active
same,inhibition at 50 µM,A549 [33],78.8%
same,IC50,HeLa [8],10.2 µM
same,IC50,MCF7 [9],9.4 µM
same,Activity,[34],Active
same,inhibition (INH),Chorioallantoic membrane [35],24%
same,IC50,MCF7 [10],9.8 µM
same,Activity,A549 [36],Active
same,Activity,A549 [37],86.2%
same,Activity,Homo sapiens,Active
same,Activity,A549 [38],Active
same,IC50,NIH3T3 [11],94.2 µM
Cn1cnc(C(=O)NNC(=O)COc2c(F)cc(C(=O)c3ccc(F)cc3)cc2Cl)c1,IC50,A549 [1],39.6 µM
same,IC50,HeLa [12],42.2 µM
same,IC50,NIH3T3 [2],94.2 µM
same,IC50,A549 [3],40.1 µM
same,IC50,HeLa [4],40.9 µM
same,IC50,NIH3T3 [5],94.4 µM
same,IC50,MCF7 [6],44.6 µM
same,IC50,A549 [7],40.7 µM
same,IC50,HeLa [8],39.9 µM
same,IC50,MCF7 [9],44.6 µM
same,IC50,MCF7 [10],45.1 µM
same,IC50,NIH3T3 [11],89.2 µM
